Experiments:
[1] = AUC (0 to 24 hrs) in rat at 5 mg/kg, po; type: ADME, organism-based; design: dose 5 mg/kg, time < 24 hr, route oral; details: in vivo
[2] = Inhibition of HCV genotype 3a full length NS3/4A protease using Ac-C(Eu)DDMEEAbu[COO]ASK(QSY7)-amide as substrate preincubated for 30 mins followed by substrate addition measured after 2.5 hrs by TRF assay; design: species or system Hepatitis C virus subtype 3a
[3] = Inhibition of HCV genotype 1b NS3/4A protease D168Y mutant using Ac-C(Eu)DDMEEAbu[COO]ASK(QSY7)-amide as substrate preincubated for 30 mins followed by substrate addition measured after 2.5 hrs by TRF assay; design: species or system Hepatitis C virus subtype 1b
[4] = molecular target: T1, Cytochrome P450 2C8 (Homo sapiens, UniProt P10632); experiment: Inhibition of CYP2C8 (unknown origin) up to 20 uM; type: ADME
T1 sequence (P10632 whole entry): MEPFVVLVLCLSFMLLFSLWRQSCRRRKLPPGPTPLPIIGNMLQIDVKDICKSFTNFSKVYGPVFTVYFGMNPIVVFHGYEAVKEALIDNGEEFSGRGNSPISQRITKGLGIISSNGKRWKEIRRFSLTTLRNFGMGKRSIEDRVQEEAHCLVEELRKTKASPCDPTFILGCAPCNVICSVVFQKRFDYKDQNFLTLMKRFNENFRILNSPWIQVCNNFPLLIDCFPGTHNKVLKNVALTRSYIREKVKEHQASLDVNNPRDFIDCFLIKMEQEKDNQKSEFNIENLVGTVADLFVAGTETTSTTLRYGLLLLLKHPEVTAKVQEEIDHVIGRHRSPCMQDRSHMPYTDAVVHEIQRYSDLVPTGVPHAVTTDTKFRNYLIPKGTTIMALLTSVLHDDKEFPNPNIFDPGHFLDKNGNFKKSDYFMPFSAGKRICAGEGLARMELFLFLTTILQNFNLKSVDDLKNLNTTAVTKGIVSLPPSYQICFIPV

[5] = test system: Hepatitis C virus; experiment: Antiviral activity against HCV genotype 3a infected in human HuH7 cells assessed as inhibition of viral replication after 72 hrs by RT-PCR method; type: functional, organism-based, Hepacivirus hominis; details: Huh-7, 72 h
[6] = test system: Liver; experiment: Drug uptake in rat liver at 40 mg/kg/day; type: ADME, organism-based; details: in vivo, read-out: Drug uptake
[7] = test system: Hepatitis C virus; experiment: Antiviral activity against HCV genotype 2a infected in human HuH7 cells assessed as inhibition of viral replication after 72 hrs by RT-PCR method in presence of 100% normal human serum; type: functional, Hepacivirus hominis; details: Huh-7, 72 h
[8] = test system: Hepatitis C virus; experiment: Antiviral activity against HCV genotype 2b infected in human HuH7 cells assessed as inhibition of viral replication after 72 hrs by RT-PCR method; type: functional, organism-based, Hepacivirus hominis; details: Huh-7, 72 h
[9] = test system: Rattus norvegicus; experiment: Toxicity in rat at 40 mg/kg/day measured for 3 days of dosing; type: organism-based; details: in vivo, 72 h
[10] = test system: Rattus norvegicus; experiment: Toxicity in telemetered rat up to 40 mg/kg; type: organism-based; details: in vivo
[11] = Oral bioavailability in dog at 1 mg/kg; type: ADME, organism-based, Canis lupus familiaris; details: in vivo
[12] = molecular target: Hepatitis C virus serine protease, NS3/NS4A (Hepatitis C virus, UniProt A3EZI9+D2K2A8, R155K); experiment: Inhibition of HCV genotype 1b NS3/4A protease R155K mutant using Ac-C(Eu)DDMEEAbu[COO]ASK(QSY7)-amide as substrate preincubated for 30 mins followed by substrate addition measured after 2.5 hrs by TRF assay; design: species or system Hepatitis C virus subtype 1b
[13] = molecular target: Cytochrome P450 3A4 (Homo sapiens, UniProt P08684); experiment: Inhibition of CYP3A4 (unknown origin) up to 50 uM; type: ADME
[14] = Inhibition of HCV genotype 1a NS3/4A protease using Ac-C(Eu)DDMEEAbu[COO]ASK(QSY7)-amide as substrate preincubated for 30 mins followed by substrate addition measured after 2.5 hrs by TRF assay; design: species or system Hepatitis C virus subtype 1a
[15] = test system: Rattus norvegicus; experiment: Hepatotoxicity in rat at 134 uM measured for 3 days of dosing; type: toxicity, organism-based; details: in vivo, 72 h
[16] = Oral bioavailability in rat at 5 mg/kg; type: ADME, organism-based; details: in vivo
[17] = species: Canis familiaris; experiment: Protein binding in dog; type: ADME, organism-based, Canis lupus familiaris; details: in vivo
[18] = Inhibition of HCV genotype 1b full length NS3/4A protease using Ac-C(Eu)DDMEEAbu[COO]ASK(QSY7)-amide as substrate preincubated for 30 mins followed by substrate addition measured after 2.5 hrs by TRF assay; design: species or system Hepatitis C virus subtype 1b
[19] = molecular target: Cytochrome P450 2D6 (Homo sapiens, UniProt P10635); experiment: Inhibition of CYP2D6 (unknown origin) up to 50 uM; type: ADME
[20] = test system: Hepatitis C virus; experiment: Antiviral activity against HCV genotype 1a infected in human HuH7 cells assessed as inhibition of viral replication after 72 hrs by RT-PCR method; type: functional, organism-based, Hepacivirus hominis; details: subtype 1a, Huh-7, 72 h
[21] = test system: Hepatitis C virus; experiment: Antiviral activity against HCV genotype 3a infected in human HuH7 cells assessed as inhibition of viral replication after 72 hrs by RT-PCR method in presence of 100% normal human serum; type: functional, Hepacivirus hominis; details: Huh-7, 72 h
[22] = Inhibition of HCV genotype 1b NS3/4A protease A156T mutant using Ac-C(Eu)DDMEEAbu[COO]ASK(QSY7)-amide as substrate preincubated for 30 mins followed by substrate addition measured after 2.5 hrs by TRF assay; design: species or system Hepatitis C virus subtype 1b
[23] = test system: Canis familiaris; experiment: Toxicity in conscious telemetered dog assessed as effect on respiratory function; type: organism-based, Canis lupus familiaris; details: in vivo
[24] = test system: Hepatitis C virus; experiment: Antiviral activity against HCV genotype 2a infected in human HuH7 cells assessed as inhibition of viral replication after 72 hrs by RT-PCR method; type: functional, organism-based, Hepacivirus hominis; details: Huh-7, 72 h
[25] = test system: Hepatitis C virus; experiment: Antiviral activity against HCV genotype 1b infected in human HuH7 cells assessed as inhibition of viral replication after 72 hrs by RT-PCR method; type: functional, organism-based, Hepacivirus hominis; details: Huh-7, 72 h
[26] = test system: Canis familiaris; experiment: Toxicity in conscious telemetered dog assessed as effect on ECG parameters; type: organism-based, Canis lupus familiaris; details: in vivo
[27] = test system: Canis familiaris; experiment: Toxicity in conscious telemetered dog assessed as effect on body temperature; type: organism-based, Canis lupus familiaris; details: in vivo
[28] = test system: Hepatitis C virus; experiment: Antiviral activity against HCV genotype 1a infected in human HuH7 cells assessed as inhibition of viral replication after 72 hrs by RT-PCR method in presence of 100% normal human serum; type: functional, Hepacivirus hominis; details: subtype 1a, Huh-7, 72 h
[29] = molecular target: Cytochrome P450 2C9 (Homo sapiens, UniProt P11712); experiment: Inhibition of CYP2C9 (unknown origin) up to 50 uM; type: ADME
[30] = test system: Canis familiaris; experiment: Toxicity in conscious telemetered dog assessed as effect on blood pressure; type: organism-based, Canis lupus familiaris; details: in vivo
[31] = species: Rattus norvegicus; experiment: Protein binding in rat; type: ADME, organism-based; details: in vivo
[32] = test system: Hepatitis C virus; experiment: Antiviral activity against HCV genotype 1b infected in human HuH7 cells assessed as inhibition of viral replication after 72 hrs by RT-PCR method in presence of 100% normal human serum; type: functional, Hepacivirus hominis; details: Huh-7, 72 h
[33] = test system: Canis familiaris; experiment: Toxicity in telemetered dog up to 40 mg/kg; type: organism-based, Canis lupus familiaris; details: in vivo
[34] = test system: Salmonella typhimurium; experiment: Mutagenicity in Salmonella typhimurium by Ames test; type: toxicity, organism-based; details: salmonella enterica subsp. enterica serovar typhimurium
[35] = test system: Canis familiaris; experiment: Toxicity in conscious telemetered dog assessed as effect on heart rate; type: organism-based, Canis lupus familiaris; details: in vivo
[36] = Inhibition of HCV genotype 1b NS3/4A protease A156V mutant using Ac-C(Eu)DDMEEAbu[COO]ASK(QSY7)-amide as substrate preincubated for 30 mins followed by substrate addition measured after 2.5 hrs by TRF assay; design: species or system Hepatitis C virus subtype 1b

With `COc1ccc2nc(C3CC3)c3c(c2c1)CC[C@]1(C[C@H]2C(=O)N[C@]4(C(=O)NS(=O)(=O)C5(C)CC5)C[C@H]4/C=C\CCCCC[C@H](NC(=O)OCC(C)C)C(=O)N2C1)O3` the AUC(0-t) at 24 h [1] was 2.3 µM·h and the IC50 [2] was 1.33 nM.
In the case of `COc1ccc2nc(C(F)(F)F)c3c(c2c1)CC[C@]1(C[C@H]2C(=O)N[C@]4(C(=O)NS(=O)(=O)C5(C)CC5)C[C@H]4/C=C\CCCCC[C@H](NC(=O)OCC(C)C)C(=O)N2C1)O3`, the IC50 [3] is reported as 0.023 nM, the “inhibition (INH)” value [4] is reported as “Not Active” and the EC50 [5] is reported as 1.7 nM. The AUC(0-t) at 24 h [1] was 9 µM·h, the concentration [6] was 134 µM and the EC90 [7] was 60 nM. The EC50 [8] was 3.4 nM, the Activity [9] was “Non-toxic” and the Activity [10] was “Non-toxic”. The bioavailability [11] was 17%, the IC50 [12] was 0.01 nM and the “inhibition (INH)” value [13] was “Not Active”. For the same compound, the IC50 [14] was 0.009 nM, the Activity [15] was “Non-toxic” and the bioavailability [16] was 31%. For the same compound, the PB [17] was “Active”, the IC50 [18] was 0.004 nM and the “inhibition (INH)” value [19] was “Not Active”. It also gave an EC50 [20] of 0.7 nM, an EC90 [21] of 90 nM and an IC50 [22] of 0.483 nM. For the same compound, the Activity [23] was “Non-toxic”, the EC50 [24] was 0.9 nM and the EC50 [25] was 0.8 nM. For the same compound, the Activity [26] was “Non-toxic”, the Activity [27] was “Non-toxic” and the EC90 [28] was 68 nM. The “inhibition (INH)” value [29] was “Not Active”, the Activity [30] was “Non-toxic” and the PB [31] was “Active”. For the same compound, the EC90 [32] was 20 nM, the IC50 [2] was 0.41 nM and the Activity [33] was “Non-toxic”. The Activity [34] was “Non-toxic”, the Activity [35] was “Non-toxic” and the IC50 [36] was 2.76 nM.
Compound `CC(C)(C)OC(=O)N[C@H]1CCCCC/C=C\[C@@H]2C[C@@]2(C(=O)NS(=O)(=O)C2(C)CC2)NC(=O)[C@@H]2C[C@]3(CCc4c(c(C5CC5)nc5ccccc45)O3)CN2C1=O` has an AUC(0-t) at 24 h [1] of 2 µM·h and an IC50 [2] of 13 nM.
`COc1ccc2nc(C)c3c(c2c1)CC[C@]1(C[C@H]2C(=O)N[C@]4(C(=O)NS(=O)(=O)C5(C)CC5)C[C@H]4/C=C\CCCCC[C@H](NC(=O)OCC(C)C)C(=O)N2C1)O3` showed an AUC(0-t) at 24 h [1] of 0.13 µM·h and an IC50 [2] of 0.18 nM.
Compound `COc1ccc2nc(C(F)(F)F)c3c(c2c1)CC[C@]1(C[C@H]2C(=O)N[C@]4(C(=O)NS(=O)(=O)C5(C)CC5)C[C@H]4/C=C\CCCCC[C@H](NC(=O)OC(C)(C)C)C(=O)N2C1)O3` has an AUC(0-t) at 24 h [1] of 2 µM·h and an IC50 [2] of 0.27 nM.

Source: ChEMBL document CHEMBL3785042, “Discovery of MK-8831, A Novel Spiro-Proline Macrocycle as a Pan-Genotypic HCV-NS3/4a Protease Inhibitor” (ACS Med Chem Lett, 2016)
